Results: patent US8278469B2, “17-hydroxy-17-pentafluoroethyl-estra-4,9(10)-dien-11-aryl derivatives, method of production thereof and use thereof for the treatment of diseases” (Bayer Pharma Aktiengesellschaft, priority 2009, dated 2012)

How the values were obtained:
[1] = Metabolic stability in human liver microsomes (HLM); type: in vitro ADME; conditions: HLM 0.5 mg/ml protein, 1 μM, 37° C., pH 7.4; well-stirred model, phase I reactions
Protocol: Metabolic Stability of (11β,17β)-17-hydroxy-11-[4-(methylsulphonyl)phenyl]-17-(pentafluoroethyl)estra-4,9-dien-3-one and (11β,17β)-17-hydroxy-11-[4′-(methylsulphonyl)-biphenyl-4-4-yl]-17-(pentafluoroethyl)estra-4,9-dien-3-one in Human Liver Microsomes (HLM)
Isolated human liver microsomes (HLM) were used for assessing the metabolic stability of compounds of general formula I.
Incubations were carried out with 2.4 ml of HLM solution (0.5 mg/ml protein content), 30 μl of the test compound (final concentration 1 μM) and 0.6 ml of the cofactor mixture (=NADPH-generating system of 3 IU glucose-6-phosphate dehydrogenase, 14.6 mg glucose-6-phosphate, 1.2 mg NADP) at 37° C. in 100 mM phosphate buffer at pH 7.4. Samples are taken at 6 time points (2-60 min), precipitated with an equal volume of methanol and the recovery of the test substances used in the supernatant is determined by LC-MS/MS analysis. The intrinsic clearance of the substance in the liver microsome preparation can be calculated from the half-life found for the breakdown of the substance. Based on this, together with various physiological characteristics according to the well-stirred model, it is then possible to predict a (metabolic) in vivo clearance with respect to phase I reactions. […]

[2] = target: T1, human progesterone receptor B (PR-B) (Homo sapiens, UniProt P06401); assay: Progesterone receptor-antagonistic action in stable transfectants of SK-N-MC cells with human PR-B and MTV-LUC reporter; type: cell-based; conditions: antagonistic efficacy against 0.1 nmol/l promegestone, SK-N-MC cells, 24 hours; read-out: Progesterone receptor B (PR-B) Efficacy
T1 construct: expressed in transfected cells; host or cells: SK-N-MC human neuroblastoma cells, stably transfected with pRChPR-B-neo and pMMTV-LUC
T1 sequence (P06401 1-933): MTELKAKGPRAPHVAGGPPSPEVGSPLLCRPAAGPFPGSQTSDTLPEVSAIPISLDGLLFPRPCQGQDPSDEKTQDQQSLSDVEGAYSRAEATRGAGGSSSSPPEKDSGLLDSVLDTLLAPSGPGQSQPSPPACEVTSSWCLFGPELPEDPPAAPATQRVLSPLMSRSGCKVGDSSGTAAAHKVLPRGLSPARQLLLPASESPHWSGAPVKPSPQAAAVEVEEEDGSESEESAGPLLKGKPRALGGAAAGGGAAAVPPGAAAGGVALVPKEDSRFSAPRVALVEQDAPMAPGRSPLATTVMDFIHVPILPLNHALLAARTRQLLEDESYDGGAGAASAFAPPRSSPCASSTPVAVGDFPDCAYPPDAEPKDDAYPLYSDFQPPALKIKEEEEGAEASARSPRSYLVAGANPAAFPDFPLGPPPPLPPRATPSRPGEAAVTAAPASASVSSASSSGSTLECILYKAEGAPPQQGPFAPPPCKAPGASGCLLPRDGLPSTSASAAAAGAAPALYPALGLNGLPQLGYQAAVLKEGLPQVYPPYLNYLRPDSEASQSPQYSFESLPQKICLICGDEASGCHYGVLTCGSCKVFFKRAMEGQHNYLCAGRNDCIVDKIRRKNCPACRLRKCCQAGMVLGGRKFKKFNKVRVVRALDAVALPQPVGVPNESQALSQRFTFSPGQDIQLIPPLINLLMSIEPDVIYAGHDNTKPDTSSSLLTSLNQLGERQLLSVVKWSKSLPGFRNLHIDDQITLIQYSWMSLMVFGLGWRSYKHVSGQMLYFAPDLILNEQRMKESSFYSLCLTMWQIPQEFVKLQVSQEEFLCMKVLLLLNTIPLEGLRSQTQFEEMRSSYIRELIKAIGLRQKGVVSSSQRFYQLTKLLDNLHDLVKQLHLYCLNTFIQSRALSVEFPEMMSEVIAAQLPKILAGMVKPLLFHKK
Protocol: (§1) Progesterone Receptor-Antagonistic Action in Stable Transfectants of Human Neuroblastoma Cells (SK-N-MC Cells) with the Human Progesterone A or Progesterone B Receptor and an MTV-LUC Reporter Construct
(§2) SK-N-MC cells (human neuroblastoma cells), which have been stably transfected with plasmids, which express the human progesterone receptor B (pRChPR-B-neo) or the human progesterone receptor A (pRChPR-A-neo) and a reporter construct (pMMTV-LUC), were incubated for 24 hours either in the absence (negative control) or in the presence of increasing amounts of the respective test compound (0.01 nmol/l, 0.1 nmol/l, 1 nmol/l, 10 nmol/l, 100 nmol/l and 1 μmol/l), in order to determine the agonistic efficacy. As positive control of reporter gene induction, the cells were treated with the synthetic gestagen promegestone (0.01 nmol/l, 0.1 nmol/l, 1 nmol/l, 10 nmol/l, 100 nmol/l and 1 μmol/l). For determination of the antagonistic activity, the cells were treated with 0.1 nmol/l promegestone and additionally with increasing amounts of the respective test compound (0.01 nmol/l, 0.1 nmol/l, 1 nmol/l, 10 nmol/l, 100 nmol/l and 1 μmol/l). The activity of the LUC reporter gene (LUC=luciferase) was determined in the cell lysates and was measured as RLU (relative light units). All measured values are given as percentage efficacy and as EC50 or IC50 concentrations.
(§3) 11β-(4-Acetylphenyl)-20,20,21,21,21-pentafluoro-17-hydroxy-19-nor-17α-pregna-4,9-dien-3-one and 20,20,21,21,21-pentafluoro-17-hydroxy-11β-[4-(hydroxyacetyl)phenyl]-19-nor-17α-pregna-4,9-dien-3-one, very potent and therefore preferred examples from WO98/34947 and WO2008/058767, were tested as comparative compounds along with the test compound.

[3] = target: T2, human progesterone receptor A (PR-A) (Homo sapiens, UniProt P06401); assay: Progesterone receptor-antagonistic action in stable transfectants of SK-N-MC cells with human PR-A and MTV-LUC reporter; type: cell-based; conditions: antagonistic efficacy against 0.1 nmol/l promegestone, SK-N-MC cells, 24 hours; read-out: Progesterone receptor A (PR-A) Efficacy
T2 construct: expressed in transfected cells; host or cells: SK-N-MC human neuroblastoma cells, stably transfected with pRChPR-A-neo and pMMTV-LUC
T2 sequence (P06401 1-769 isoform P06401-2): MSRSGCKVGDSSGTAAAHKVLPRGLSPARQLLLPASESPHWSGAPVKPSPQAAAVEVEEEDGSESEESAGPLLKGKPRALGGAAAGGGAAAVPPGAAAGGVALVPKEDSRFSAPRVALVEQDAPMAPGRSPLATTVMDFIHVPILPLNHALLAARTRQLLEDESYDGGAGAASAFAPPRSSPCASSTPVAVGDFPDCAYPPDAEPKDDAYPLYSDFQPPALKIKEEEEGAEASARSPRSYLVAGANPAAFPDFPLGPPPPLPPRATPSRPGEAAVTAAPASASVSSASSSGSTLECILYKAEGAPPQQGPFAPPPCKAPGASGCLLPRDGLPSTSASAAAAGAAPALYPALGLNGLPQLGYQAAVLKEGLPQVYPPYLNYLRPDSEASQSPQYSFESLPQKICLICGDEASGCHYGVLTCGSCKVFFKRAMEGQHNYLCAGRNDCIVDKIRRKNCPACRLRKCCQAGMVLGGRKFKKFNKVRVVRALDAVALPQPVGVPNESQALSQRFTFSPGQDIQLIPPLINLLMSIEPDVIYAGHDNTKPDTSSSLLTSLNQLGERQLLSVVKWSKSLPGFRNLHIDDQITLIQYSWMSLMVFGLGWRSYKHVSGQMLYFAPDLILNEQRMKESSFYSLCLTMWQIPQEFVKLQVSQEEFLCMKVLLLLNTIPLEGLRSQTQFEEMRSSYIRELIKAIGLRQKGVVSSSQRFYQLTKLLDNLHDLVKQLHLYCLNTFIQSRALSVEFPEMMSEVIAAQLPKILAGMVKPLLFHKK
Protocol: as §1, §2, §3

(metabolic) in vivo clearance in humans predicted [1] | Emax [2] | Emax [3] | Structure (SMILES)
< 0.17 mL/min/kg | 100% | 100% | C[C@]12C[C@H](c3ccc(-c4ccc(S(C)(=O)=O)cc4)cc3)C3=C4CCC(=O)C=C4CC[C@H]3[C@@H]1CC[C@@]2(O)C(F)(F)C(F)(F)F [Example 10, (11β,17β)-17-hydroxy-11-[4′-(methylsulphonyl)biphenyl-4-yl]-17-(pentafluoroethyl)estra-4,9-dien-3-one]
– | 100% | 100% | CN(C)S(=O)(=O)c1ccc([C@H]2C[C@@]3(C)[C@@H](CC[C@@]3(O)C(F)(F)C(F)(F)F)[C@@H]3CCC4=CC(=O)CCC4=C32)cc1 [Example 15, 4-[(11β,17β)-17-Hydroxy-3-oxo-17-(pentafluoroethyl)estra-4,9-dien-11-yl]-N,N-dimethylbenzene sulphonamide]
